Measured values reported in patent publication US10308620B2, “Muscarinic M1 receptor positive allosteric modulators” (SUVEN LIFE SCIENCES LIMITED, priority 2015, dated 2019).

Assays:
[1] = Rodent pharmacokinetic study; type: in vivo, rat; conditions: male Wistar rats; for clearance / half-life / Vd / Cmax / Tmax / bioavailability: rat, plasma; for Vd: read-out: Vz; for bioavailability: 3 mg/kg oral vs 1 mg/kg i.v.
Method: Rodent Pharmacokinetic Study
Male Wistar rats (260±50 grams) were used as experimental animals. Animals were housed individually in polypropylene cage. Two days prior to study, male Wistar rats were anesthetized with isoflurane for surgical placement of jugular vein catheter. Rats were randomly divided for oral (3 mg/kg) and intravenous (1 mg/kg) dosing (n=3/group) and fasted overnight before oral dosing (p.o.). However, rats allocated to intravenous (i.v.) dosing food and water was provided ad libitum.
At pre-determined point, blood was collected through jugular vein and replenished with an equivalent volume of normal saline. Collected blood was transferred into a labeled eppendorf tube containing 10 μL of heparin as an anticoagulant. Typically blood samples were collected at following time points: 0.08, 0.25, 0.5, 1, 2, 4, 6, 8, and 24 hours post dose. Blood was centrifuged at 4000 rpm for 10 minutes. Plasma was separated and stored frozen at −80° C. until analysis. The concentrations of the test compounds were quantified in plasma by qualified LC-MS/MS method using suitable extraction technique. The test compounds were quantified in the calibration range around 1-1000 ng/mL in plasma. Study samples were analyzed using calibration samples in the batch and quality control samples spread across the batch.
Pharmacokinetic parameters Cmax, Tmax, AUCt, T1/2, clearance, Vz and bioavailability were calculated by non-compartmental model using standard non-compartmental model by using Phoenix WinNonlin 6.0.2 or 6.0.3 version Software package.

[2] = biological target: recombinant human Muscarinic M1 receptor (Homo sapiens (Human), UniProt P11229); assay: Allosteric potency EC50, CHO cells with pCRE-Luc reporter, in presence of EC20 of acetylcholine; type: cell-based; conditions: 4 hours
Chain of recombinant human Muscarinic M1 receptor (P11229 whole entry): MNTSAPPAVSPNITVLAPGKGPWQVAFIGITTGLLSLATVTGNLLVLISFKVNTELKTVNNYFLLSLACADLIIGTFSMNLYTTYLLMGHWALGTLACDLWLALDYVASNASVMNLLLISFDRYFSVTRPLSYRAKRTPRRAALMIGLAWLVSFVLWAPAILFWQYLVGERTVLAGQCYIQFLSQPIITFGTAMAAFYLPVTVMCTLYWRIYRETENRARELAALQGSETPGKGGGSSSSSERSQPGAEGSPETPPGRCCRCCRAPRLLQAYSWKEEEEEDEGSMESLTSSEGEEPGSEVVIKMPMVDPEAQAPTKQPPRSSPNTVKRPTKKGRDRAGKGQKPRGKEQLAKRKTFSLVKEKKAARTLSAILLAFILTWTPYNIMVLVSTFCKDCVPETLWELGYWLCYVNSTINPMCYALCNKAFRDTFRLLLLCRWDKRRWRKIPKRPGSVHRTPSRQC
Method: Determination of Allosteric Potency EC50 Values for Muscarinic M1 Receptor:
A stable CHO cell line expressing recombinant human Muscarinic M1 receptor and pCRE-Luc reporter system was used for cell-based assay. The assay offers a non-radioactive based approach to determine binding of a compound to GPCRs. In this specific assay, the level of intracellular cyclic AMP which is modulated by activation or inhibition of the receptor is measured. The recombinant cells harbor luciferase reporter gene under the control of cAMP response element.
The above cells were grown in 96 well clear bottom white plates in Hams F12 medium containing 10% fetal bovine serum (FBS). Prior to the addition of compounds or standard agonist, cells were serum starved overnight. Increasing concentrations of test compounds were added along with EC20 of acetylcholine in OptiMEM medium to the cells. The incubation was continued at 37° C. in CO2 incubator for 4 hours. Medium was removed and cells were washed with phosphate buffered saline. The cells were lysed and luciferase activity was measured in a Luminometer. Luminescence units were plotted against the compound concentrations using Graphpad software. EC50 values of the compounds were defined as the concentration required in stimulating the luciferase activity by 50% in presence of EC20 of acetylcholine.

[3] = Rodent brain penetration study; type: in vivo; conditions: rat, oral, 3 mg/kg, p.o., male Wistar rats, read-out: Single dose Rat Brain Penetration (Cb/Cp)
Method: Rodent Brain Penetration Study
Male Wistar rats (260±40 grams) were used as experimental animals. Three animals were housed in each cage. Animals were given water and food ad libitum throughout the experiment and maintained on a 12 hours light/dark cycle.
Brain penetration was determined in discrete manner in rats. One day prior to dosing day, male Wistar rats were acclimatized and randomly grouped according to their weight. At each time point (0.50, 1 and 2 hours) n=3 animals were used.
The test compounds were suitably preformulated and administered orally at (free base equivalent) 3 mg/kg. Blood samples were removed via cardiac puncture by using isoflurane anesthesia. The animals were sacrificed to collect brain tissue. Plasma was separated and brain samples were homogenized and stored frozen at −20° C. until analysis. The concentrations of the test compounds in plasma and brain were determined using LC-MS/MS method.
The test compounds were quantified in plasma and brain homogenate by qualified LC-MS/MS method using suitable extraction technique. The test compounds were quantified in the calibration range of 1-500 ng/mL in plasma and brain homogenate. Study samples were analyzed using calibration samples in the batch and quality control samples spread across the batch. Extent of brain-plasma ratio was calculated (Cb/Cp).

Male Wistar rats = assay: Object recognition task model (time induced memory deficit); type: in vivo, rat; conditions: p.o.; for Exploration time mean ± S.E.M, Familiar object / Exploration time mean ± S.E.M, Novel object: choice trial 24 hours after T1
Method: Object Recognition Task Model
The cognition enhancing properties of compounds of this invention were estimated by using this model.
Male Wistar rats (8-10 weeks old) were used as experimental animals. Four animals were housed in each cage. Animals were kept on 20% food deprivation from a day prior to experimentation. Water was provided ad libitum throughout the experiment. Animals were maintained on a 12 hours light/dark cycle in temperature and humidity controlled room. The experiment was carried out in an open field made up of acrylic. Rats were habituated to individual arenas (open field) for 1 hour in the absence of any objects on day 1.
One group of 12 rats received vehicle and another set of animals received test compounds or test compounds and Donepezil, before the familiar (T1) and choice (T2) trials. During the familiarization phase, (T1), the rats were placed individually in the arena for 3 minutes, in which two identical objects (a1 and a2) were positioned 10 cm from the wall. 24 hours after T1, trial for long-term memory test was performed. The same rats were placed in the same arena as they were placed in T1 trial. During the choice phase (T2) rats were allowed to explore the arena for 3 minutes in presence of a copy of familiar object (a3) and one novel object (b). During the T1 and T2 trial, explorations of each object (defined as sniffing, licking, chewing or having moving vibrissae whilst directing the nose towards the object at a distance of less than 1 cm) were recorded using stopwatch.
T1 is the total time spent exploring the familiar objects (a1+a2).
T2 is the total time spent exploring the familiar object and novel object (a3+b). Discriminative index=Time spent with novel object/(time spent with novel and familiar object).
The object recognition test was performed as described in Behavioural Brain Research, 1988, 31, 47-59.

SMILES | AUC0-t ([1]; 1 mg/kg i.v. (bolus)) [µg·h/mL] | AUC0-t ([1]; 3 mg/kg oral (gavage)) [µg·h/mL] | clearance ([1]; iv, 1 mg/kg i.v. (bolus)) [L/h/kg] | half-life ([1]; iv, 1 mg/kg i.v. (bolus)) [h] | Vd ([1]; iv, 1 mg/kg i.v. (bolus)) [L/kg] | Cmax ([1]; 3 mg/kg oral (gavage)) [µg/mL] | Tmax ([1]; 3 mg/kg oral (gavage)) [h] | half-life ([1]; 3 mg/kg oral (gavage)) [h] | bioavailability [1] [%] | EC50 [2] [µM] | Kp [3] | Inference (Male Wistar rats; 1 mg/kg) | Exploration time mean ± S.E.M, Familiar object (Male Wistar rats; 1 mg/kg) [s] | Exploration time mean ± S.E.M, Novel object (Male Wistar rats; 1 mg/kg) [s] | Inference (Male Wistar rats; 10 mg/kg) | Exploration time mean ± S.E.M, Familiar object (Male Wistar rats; 10 mg/kg) [s] | Exploration time mean ± S.E.M, Novel object (Male Wistar rats; 10 mg/kg) [s]
COc1cc(CN2C=C(C(=O)N[C@H]3CCCC[C@@H]3O)Oc3ccccc32)ccn1 [Example 11, N-(cis-1S,2S-2-Hydroxycyclohexyl)-4-(2-methoxypyridin-4-ylmethyl)-4H-benzo[1,4]oxazine-2-carboxamide] | 0.838 ± 0.163 | 1.5 ± 0.2 | 1.2 ± 0.24 | 1.9 ± 0.6 | 3.1 ± 0.3 | 0.392 ± 0.043 | 1 | 1.8 ± 0.1 | 60 ± 8 | 0.498 | 1.44 ± 0.16 | Active | 10.05 ± 1.66 | 16.92 ± 1.86 | – | – | –
O=C(N[C@H]1CCCC[C@@H]1O)C1=CN(Cc2ccccc2)c2ccccc2O1 [Example 4, N-(cis-1S,2S-2-Hydroxycyclohexyl)-4-benzyl-4H-benzo[1,4]oxazine-2-carboxamide] | 0.415 ± 0.017 | 0.607 ± 0.062 | 2.4 ± 0.12 | 1.4 ± 0.1 | 4.7 ± 0.1 | 0.245 ± 0.027 | 0.58 ± 0.38 | 1.5 ± 0.3 | 49 ± 5 | 1.43 | 1.43 ± 0.01 | – | – | – | Active | 7.43 ± 0.67 | 11.21 ± 1.26
COc1ccc(CN2C=C(C(=O)N[C@H]3CCCC[C@@H]3O)Oc3ccccc32)cc1 [Example 5, N-(cis-1S, 2S-2-Hydroxycyclohexyl)-4-(4-methoxybenzyl)-4H-benzo[1,4]oxazine-2-carboxamide] | 1.15 ± 0.062 | 3.98 ± 0.533 | 0.84 ± 0.06 | 4.5 ± 0.2 | 5.6 ± 0.5 | 0.43 ± 0.035 | 2.83 ± 2.02 | 3.9 ± 0.1 | 115 ± 15 | 0.135 | 0.9 ± 0.15 | – | – | – | – | – | –

Continued, in another order:

AUC0-t ([1]; 1 mg/kg i.v. (bolus)) [µg·h/mL] | AUC0-t ([1]; 3 mg/kg oral (gavage)) [µg·h/mL] | clearance ([1]; iv, 1 mg/kg i.v. (bolus)) [L/h/kg] | half-life ([1]; iv, 1 mg/kg i.v. (bolus)) [h] | Vd ([1]; iv, 1 mg/kg i.v. (bolus)) [L/kg] | Cmax ([1]; 3 mg/kg oral (gavage)) [µg/mL] | Tmax ([1]; 3 mg/kg oral (gavage)) [h] | half-life ([1]; 3 mg/kg oral (gavage)) [h] | bioavailability [1] [%] | EC50 [2] [µM] | Kp [3] | SMILES | Inference (Male Wistar rats; 1 mg/kg) | Exploration time mean ± S.E.M, Familiar object (Male Wistar rats; 1 mg/kg) [s] | Exploration time mean ± S.E.M, Novel object (Male Wistar rats; 1 mg/kg) [s] | Inference (Male Wistar rats; 10 mg/kg) | Exploration time mean ± S.E.M, Familiar object (Male Wistar rats; 10 mg/kg) [s] | Exploration time mean ± S.E.M, Novel object (Male Wistar rats; 10 mg/kg) [s]
0.6 ± 0.074 | 0.467 ± 0.169 | 1.62 ± 0.18 | 9.2 ± 2.2 | 22 ± 8 | 0.091 ± 0.038 | 4 | 2.6 ± 0.2 | 26 ± 9 | 0.149 | 1.92 ± 0.24 | O=C(N[C@H]1CCCC[C@@H]1O)C1=CN(Cc2cccc(C(F)(F)F)c2)c2ccccc2O1 [Example 17, N-(cis-1S, 2S-2-Hydroxycyclohexyl)-4-(3-trifluoromethylbenzyl)-4H-benzo[1,4]oxazine-2-carboxamide] | – | – | – | – | – | –
– | – | – | – | – | – | – | – | – | 1.25 | 0.82 ± 0.25 | O=C(NC1CCOCC1O)C1=CN(Cc2cccc(F)c2F)c2ccccc2O1 (centres unmarked) [Example 20, N-(3-Hydroxytetrahydrpyran-4-yl)-4-(2,3-difluorobenzyl)-4H-benzo[1,4]oxazine-2-carboxamide] | – | – | – | Active | 12.17 ± 1.84 | 19.94 ± 3.02
0.533 ± 0.062 | 0.371 ± 0.149 | 1.86 ± 0.24 | 3.6 ± 3 | 9.8 ± 8 | 0.132 ± 0.032 | 1 | 2.3 ± 0.5 | 23 ± 9 | 0.42 | 1.93 ± 0.37 | O=C(N[C@H]1CCCC[C@@H]1O)C1=CN(Cc2cccc(F)c2)c2cccc(F)c2O1 [Example 51, N-(cis-1S,2S-2-Hydroxycyclohexyl)-4-{3-fluorobenzyl}-8-fluoro-4H-benzo[1,4]oxazine-2-carboxamide] | – | – | – | – | – | –
0.452 ± 0.135 | 0.719 ± 0.269 | 2.34 ± 0.6 | 1.2 ± 0.6 | 3.5 ± 1 | 0.159 ± 0.026 | 1.5 ± 0.9 | 3.2 ± 2 | 53 ± 20 | 1.18 | 1.96 ± 0.91 | O=C(N[C@H]1CCCC[C@@H]1O)C1=CN(Cc2cccc(F)c2F)c2ncccc2O1 [Example 33, N-(cis-1S,2S-2-Hydroxycyclohexyl)-4-(2,3-difluorobenzyl)-4H-pyrido[3,2-b][1,4]oxazine-2-carboxamide] | – | – | – | – | – | –
